Reference: PMC7932555, “A diffusible signal factor of the intestine dictates Salmonella invasion through its direct control of the virulence activator HilD” (PLoS Pathogens, 2021)

Test system: sipB::lacZY
Assay: sipB::lacZY reporter β-galactosidase assay in strains expressing wild type or mutant HilD
Assay type: cell-based
Conditions: 20 μM fatty acid (mix: 20 μM of each)
From the text: To test the effect of mutations in hilD, we initially constructed a background Salmonella strain without chromosomal hilC, rtsA and hilD and fused sipB to lacZY to assess SPI-1 expression. hilD with a C-terminal 3XFLAG tag was cloned into pWSK29 under control of the tetRA promoter for tetracycline-inducible expression. This plasmid was subjected to site-directed mutagenesis at specific nucleotides to change selected amino acids to alanine, using the Agilent QuikChange II Site-Directed Mutagenesis kit following their protocol. Mutations were confirmed by DNA sequencing.
Salmonella strains were inoculated into LB buffered with 100 mM MOPS [3-(N-morpholino) propanesulphonic acid] pH 6.7, with necessary antibiotics, and fatty acids or control solvents to be tested. Cultures were incubated at 37° C without aeration overnight, and assays were performed using an established protocol.

[1] = strain expressing wild type HilD

Row | Structure (SMILES) | repression of sipB expression (strain expressing HilD K293A) | repression of sipB expression (strain expressing HilD K294A) | repression of sipB expression [1] [fold] | repression of sipB expression (strain expressing HilD K43A) | repression of sipB expression (strain expressing HilD Q290A)
1 | CCCCCCCCC/C=C\C(=O)O [c2-DDA, cis-2-dodecenoic acid] | no significant reduction | no significant reduction | 4.1 |  | 
2 | CCCCCCCCCCC/C=C\CCCCCCC(=O)O [c8-EA, cis-8-eicosenoic acid] | continued to repress sipB expression | continued to repress sipB expression |  |  | 
3 | CCCCCCCC/C=C\CCCCCCCC(=O)O [oleic acid, cis-9-octadecenoic acid] | continued to repress sipB expression | continued to repress sipB expression | 3.7 | no longer had a repressive effect | no longer had a repressive effect
